Columns and labels:
ventricle of guinea pigs = experiment: Functional effectiveness on guinea-pig hearts in vivo (ERP, QT, QRS, systolic blood pressure); set-up: species or system guinea pig (Dunkin-Hartley); settings: 1 min. after 10 μmole/kg i.v.; for QRS / QT / syst. blood pressure (change): guinea pigs; for syst. blood pressure (change): minus effects due to the vehicle, negative values indicate reduction; for ERP: ventricle of guinea pigs, negative values indicate shortening
Description: 4. Investigation of the Functional Effectiveness of the Substances on Guinea-Pig Hearts in Vivo
In the test model shown below, it was shown that the substances according to the invention at most have slight undesirable proarrhythmic effects on repolarization in the ventricle. To this end, the influence of the compounds of Formula I on the effective refractory period (ERP) and other influencing variables on guinea-pig hearts in vivo were investigated. In this test model, non-selective potassium channel blockers not in accordance with the invention, which also block HERG and/or KvLQT1 channels, result in undesirable prolongation of the ERP and the QT time on an electrocardiogram (═ECG). The QT time is likewise a measurement of the repolarization in the heart. Prolongations of both the ERP and the QT time, respectively, which are due to the substances were independently interpreted as indications of the risk of the occurrence of undesirable torsade-de-pointes arrhythmias. Furthermore, the QRS interval also was determined in each case from the ECG as a measurement of the ventricular rate of spread of stimulus. Even a prolongation of the QRS interval caused by a test substance is connected with an increased risk of undesirable pro-arrhythmic side-effects. Therefore in this test model the lack of an ERP and QT time prolongation signifies a low risk, but the occurrence of a relevant ERP and QT prolongation on the other hand signifies an elevated risk of undesirable pro-arrhythmic effects. Also the lack of a prolongation of the QRS interval which is due to the substances due to the substances of Formula I investigated indicates a low risk of undesirable pro-arrhythmic side-effects, since lack of QRS prolongation indicates an undisturbed spread of stimulus in the ventricle. Conversely, a QRS prolongation, which is typically triggered by Class I antiarrhythmic drugs indicates slowing of the conduction rate and may promote the occurrence of ventricular tachycardias to ventricular fibrillation.
Male guinea pigs (Dunkin-Hartley from Charles River) were anaesthetized (ketamine 50 mg/kg, xylazine 10 mg/kg) and each of them was provided with a venous access via one jugular vein for administration of compounds of Formula I or a vehicle. A bipolar stimulation catheter was fed into the right ventricle of the guinea pigs via the other jugular vein (stimulation frequency 5 Hz). The arterial blood pressure was measured by a catheter located in the carotid artery which was connected to a Statham pressure transducer. The ECG was recorded via needle electrodes. The measured data were digitized via an analog/digital converter, recorded on a computer with suitable software (Ponemah Physiology Platform from Gould, USA) and printed out in parallel on a multichannel printer. After an equilibration period of 45 min., increasing doses of the compounds of Formula I or of the vehicle were administered intravenously (=i.v.) to the guinea pigs at 12-minute intervals. Before the first administration and in each case one minute after administration of increasing doses (0.1−max. 30 μmole/kg) of the substances of Formula I, the effective refractory period was measured. For this, after five normal stimuli in each case an additional pulse was applied and the elapsed time thereof from the preceding pulse was increased until a heart action was triggered. The observed time interval corresponds to the ERP of the ventricular myocardium.
In order to detect possible effects of the test substances on the blood pressure, in the same test model after each administration of substance the systolic and diastolic blood pressure was determined and compared with the previous blood-pressure level. The parameters were recorded automatically 1 and 8 min. after each administration of substance.
Only statistically significant effects were listed, with a t-test with a significance limit of P<0.05 being used for the statistical testing.

[1] = system: left atrium of rats' hearts; experiment: Functional refractory period prolongation on isolated left atria of rats' hearts in vitro; set-up: species or system rat (Sprague-Dawley); settings: 10 μM
Protocol: 3. Investigation of the Functional Effectiveness of the Substances on the Atrium of Rats' Hearts in Vitro
In this test model it is determined to what extent the Kv 1.5-blocking substances of Formula I result in a prolongation of the functional refractory period in the left atrium of rats. The refractory period is the minimum possible elapsed time between the basic stimulus and additional stimulus in which a renewed contraction can be triggered. The extent of the prolongation of the functional refractory period is a measurement of the antiarrhythmic effectiveness of the substances according to the invention. The functional refractory period is determined by testing on the electrically stimulated preparation at what elapsed time from the preceding contraction a renewed contraction can be triggered by additional electrical stimuli.
The hearts were removed from freshly sacrificed rats (Sprague-Dawley, Charles-River, Germany). The left atria were isolated and fastened to force transducers in a temperature-controlled (30° C.), gasified (O2 95%, CO2 5%) organ bath which was filled with modified Tyrode solution (all values in mM: NaCl 137; KCl 2.7; CaCl2 1.8; MgCl2 0.8; NaHCO3 11.9; NaH2PO4 0.6; glucose 5). In order to trigger regular contractions, the preparations were electrically stimulated (rectangular pulses, pulse magnitude 3.5× threshold stimulus, pulse width 1.5 ms, frequency 1 Hz). Initially, the initial value of the functional refractory period was determined by applying extra pulses in addition to the basic stimulus, the elapsed time from the preceding basic stimulus being shortened until no further additional contraction could be triggered. Then the cumulative addition of increasing concentrations (0.1-10 μM) of the substances of Formula I took place at intervals of 20 min. each, the refractory period being determined again in each case 18 min. after the addition had taken place. Before the measurement, stock solutions of the test substances (3.2 and 0.32 mM in 100% DMSO) were prepared. In order to achieve the desired final concentrations of the substances (0.1-10 μM) in the organ bath (volume 100 ml), corresponding volumes of these stock solutions were then poured into the organ bath.
In each case the prolongation of the functional refractory period (FRP) in the left atrium of the rats' hearts in milliseconds observed after the addition of 10 μM of the respective substance of Formula I to the atrial preparations was given as characteristic variable.

**Q.** `CC1(C)Oc2ccc(CC(=O)NC3CCCc4ccccc43)cc2C(NS(=O)(=O)c2cccc(F)c2)C1O` (mixture of isomers) [Example 13] was tested. Which QRS (ventricle of guinea pigs) did it give?
**A.** n.s.

**Q.** And the QT (ventricle of guinea pigs)?
**A.** n.s.

**Q.** What about the “syst. blood pressure (change)” value (ventricle of guinea pigs) of the same molecule?
**A.** n.s.

**Q.** What about the ERP (ventricle of guinea pigs) of the same molecule?
**A.** n.s.

**Q.** And the FRP prolongation [1]?
**A.** 28 ms

**Q.** Which QRS (ventricle of guinea pigs) does the source give for `CCc1ccc(S(=O)(=O)N[C@@H]2c3cc(CC(=O)N[C@@H]4CCCc5ccccc54)ccc3OC(C)(C)[C@H]2O)cc1` [Example 2, 2-((3S,4R)-4-{[(4-ethylphenyl)sulfonyl]amino}-3-hydroxy-2,2-dimethyl-3,4-dihydro-2H-chromen-6-yl)-N-[(1R)-1,2,3,4-tetrahydronaphth-1-yl]acetamide] here?
**A.** n.s.

**Q.** What about the QT (ventricle of guinea pigs) of the same molecule?
**A.** n.s.

**Q.** And the “syst. blood pressure (change)” value (ventricle of guinea pigs)?
**A.** n.s.

**Q.** What about the ERP (ventricle of guinea pigs) of the same molecule?
**A.** n.s.

**Q.** What about the FRP prolongation [1] of the same molecule?
**A.** 20 ms

**Q.** What does the source list for `CCc1ccc(S(=O)(=O)N(CC(C)(C)C)C2c3cc(CC(=O)NCc4ccccc4)ccc3OC(C)(C)C2O)cc1` (stereo not drawn) [Example 4, N-benzyl-2-{4-[[(4-ethylphenyl)sulfonyl](neopentyl)amino]-3-hydroxy-2,2-dimethyl-3,4-dihydro-2H-chromen-6-yl}acetamide]?
**A.** QRS (ventricle of guinea pigs): n.s.; QT (ventricle of guinea pigs): n.s.; syst. blood pressure (change) (ventricle of guinea pigs): n.s.; ERP (ventricle of guinea pigs): n.s.; FRP prolongation [1]: 17 ms

**Q.** Which results are given for `CCc1ccc(S(=O)(=O)N(CC(C)(C)C)[C@@H]2c3cc(CC(=O)NCc4ccccc4)ccc3OC(C)(C)[C@H]2O)cc1` [Example 7]?
**A.** QRS (ventricle of guinea pigs): n.s.; QT (ventricle of guinea pigs): n.s.; syst. blood pressure (change) (ventricle of guinea pigs): −15.3 mm Hg; ERP (ventricle of guinea pigs): -8.2 ms; FRP prolongation [1]: 24 ms

**Q.** For `CCc1ccc(S(=O)(=O)N(CC(C)(C)C)[C@H]2c3cc(CC(=O)NCc4ccccc4)ccc3OC(C)(C)[C@@H]2O)cc1` [Example 8], which QRS (ventricle of guinea pigs) is on record?
**A.** n.s.

**Q.** What about the QT (ventricle of guinea pigs) of the same molecule?
**A.** n.s.

**Q.** What about the “syst. blood pressure (change)” value (ventricle of guinea pigs) of the same molecule?
**A.** −10.7 mm Hg

**Q.** And the ERP (ventricle of guinea pigs)?
**A.** n.s.

**Q.** And the FRP prolongation [1]?
**A.** 17 ms

**Q.** `CCc1ccc(S(=O)(=O)N[C@@H]2c3cc(CC(=O)N[C@H]4CCCc5ccccc54)ccc3OC(C)(C)[C@H]2O)cc1` [Example 9] was tested. Which FRP prolongation [1] did it give?
**A.** 30 ms

**Q.** Which results are given for `CCc1ccc(S(=O)(=O)N(CC(C)(C)C)C2c3cc(CC(=O)NCCc4ccccc4)ccc3OC(C)(C)C2O)cc1` (stereo not drawn) [Example 10]?
**A.** QRS (ventricle of guinea pigs): n.s.; QT (ventricle of guinea pigs): n.s.; syst. blood pressure (change) (ventricle of guinea pigs): −15.9 mm Hg; ERP (ventricle of guinea pigs): -8.0 ms; FRP prolongation [1]: 20 ms

**Q.** For `CCc1ccc(S(=O)(=O)NC2c3cc(CC(=O)N4CCN(c5ccccc5)CC4)ccc3OC(C)(C)C2O)cc1` (stereo not drawn) [Example 16], which QRS (ventricle of guinea pigs) is on record?
**A.** n.s.

**Q.** What about the QT (ventricle of guinea pigs) of the same molecule?
**A.** n.s.

**Q.** What about the “syst. blood pressure (change)” value (ventricle of guinea pigs) of the same molecule?
**A.** −8.6 mm Hg

**Q.** And the ERP (ventricle of guinea pigs)?
**A.** -7.5 ms

**Q.** And the FRP prolongation [1]?
**A.** 20 ms

Reference: patent US7368582B2, “Amidomethyl-substituted 2-(4-sulfonylamino)-3-hydroxy-3,4-dihydro-2H-chromen-6-yl compounds, a process and intermediates for their production, and pharmaceutical compositions containing them” (Solvay Pharmaceuticals GmbH, priority 2003, dated 2008)
